Drawing on PubChem BioAssay (NCI), this text covers TGI and GI50 for 16 molecules.

Among the test systems are ACHN renal; COLO 205 colon; LOX IMVI melanoma; SNB-19 CNS; KM12 colon; A549 NSCLC; NCI-H460 lung; OVCAR-5 ovarian.
Assay in all cases: NCI anticancer screen, dose series, 48 h

Structures are written as SMILES.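 The compound was tested at five concentrations on cells cultured in 96-well plates, with a 48-hour exposure period. GI50 marks 50% less growth. Definition used: TGI = concentration required for complete inhibition of growth.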

On to `COc1ccc(OC)c2c1C(=O)C1CC1(Br)C2=O` (centres undefined), for which the TGI in the experiment with ACHN renal, in the experiment with COLO 205 colon, in the experiment on LOX IMVI melanoma, in the experiment on SNB-19 CNS, with KM12 colon and with A549 NSCLC was more than 100 µM throughout. Moreover, the TGI in the experiment with NCI-H460 lung and in the experiment with OVCAR-5 ovarian was more than 100 µM in each case.

`CN(/N=C/c1cccc2cccnc12)c1ccccc1`: the TGI in the experiment on ACHN renal, in the experiment on COLO 205 colon, in the experiment with LOX IMVI melanoma, in the experiment with SNB-19 CNS, in the experiment with KM12 colon and with A549 NSCLC was more than 100 µM in each case. The TGI in the experiment on NCI-H460 lung and in the experiment with OVCAR-5 ovarian was more than 100 µM each time.

Regarding `[N-]=[N+]=NC(CI)c1cn([C@H]2C[C@H](O)[C@@H](CO)O2)c(=O)[nH]c1=O` (some centres undefined), the TGI with ACHN renal, in the experiment with COLO 205 colon, in the experiment with LOX IMVI melanoma, in the experiment with SNB-19 CNS, in the experiment with KM12 colon and in the experiment on A549 NSCLC was more than 100 µM throughout. Also, the TGI in the experiment on NCI-H460 lung and in the experiment with OVCAR-5 ovarian was more than 100 µM each time.

As to `CC(C)c1cccc2sc(NC(=O)C(=O)C(C#N)c3cccc4ccccc34)nc12` (centres undefined), the TGI in the experiment with ACHN renal, with COLO 205 colon, with SNB-19 CNS, in the experiment on KM12 colon, with A549 NSCLC and in the experiment with NCI-H460 lung was more than 100 µM each time.

As for `O=c1c2ccccc2nc(-c2ccccc2)n1NC1OC(CO)C(O)C(O)C1O` (centres undefined), the TGI in the experiment with ACHN renal, in the experiment on COLO 205 colon, with SNB-19 CNS, with KM12 colon, in the experiment with A549 NSCLC and in the experiment on NCI-H460 lung was more than 100 µM throughout. This molecule yielded a TGI in the experiment with OVCAR-5 ovarian of more than 100 µM.

As for `CCOC(=O)C(=Cc1cccnc1C)C(=O)OCC`, the TGI in the experiment on ACHN renal worked out at 29.5 µM; in the experiment on COLO 205 colon it was 18.4 µM; in the experiment on LOX IMVI melanoma it was 14.2 µM; with SNB-19 CNS, 23.6 µM; with KM12 colon, 12.9 µM; in the experiment with A549 NSCLC, 51.3 µM. Moreover, the TGI in the experiment with NCI-H460 lung was 35.8 µM; with OVCAR-5 ovarian, 31.8 µM.

In the case of `Cc1ccccc1NC(=O)C(=O)CC(=O)c1c(C)n([O-])c2ccccc2[n+]1=O`, the TGI in the experiment with ACHN renal, with COLO 205 colon, in the experiment on SNB-19 CNS, in the experiment on KM12 colon, with A549 NSCLC and in the experiment on NCI-H460 lung was more than 100 µM throughout. This molecule also had a TGI with OVCAR-5 ovarian of more than 100 µM.

For `O=CN/C=C/c1ccc(O)c(O)c1`, the TGI in the experiment with ACHN renal, in the experiment on COLO 205 colon, with LOX IMVI melanoma, with SNB-19 CNS, in the experiment on KM12 colon and in the experiment with A549 NSCLC was more than 100 µM each time. For the same molecule, the TGI in the experiment with NCI-H460 lung and with OVCAR-5 ovarian was more than 100 µM throughout.

On to `CCOC(=O)NC(=O)c1cn(CCN2CCN(c3ncnc4nc[nH]c34)CC2)c(=O)[nH]c1=O`, for which the TGI in the experiment on ACHN renal, in the experiment with COLO 205 colon, in the experiment with LOX IMVI melanoma, in the experiment on SNB-19 CNS, with KM12 colon and in the experiment with A549 NSCLC was more than 100 µM in each case. Besides, the TGI in the experiment on NCI-H460 lung and in the experiment with OVCAR-5 ovarian was more than 100 µM in each case.

In the case of `Cc1ccc(Nc2nc(C)c(C(/C=C/c3ccc(/C=C/C(=N/NC(=O)C[n+]4ccccc4)c4sc(Nc5ccc(C)cc5[N+](=O)[O-])nc4C)cc3)=N\NC(=O)C[n+]3ccccc3)s2)c([N+](=O)[O-])c1`, the TGI in the experiment on ACHN renal, with COLO 205 colon, in the experiment on LOX IMVI melanoma, with SNB-19 CNS, in the experiment on KM12 colon and with A549 NSCLC was more than 100 µM in each case. Further, the TGI in the experiment with NCI-H460 lung and with OVCAR-5 ovarian was more than 100 µM each time.

As for `Cc1cc(Cl)ccc1NC(=O)CC/C(CC(=O)C(C)C)=N\NC(=O)C[n+]1ccccc1`, the TGI in the experiment on ACHN renal, with COLO 205 colon, in the experiment with LOX IMVI melanoma, with SNB-19 CNS, in the experiment on KM12 colon and with A549 NSCLC was more than 100 µM each time. Besides, the TGI in the experiment on NCI-H460 lung and in the experiment on OVCAR-5 ovarian was more than 100 µM each time.

Consider `COC(=O)CCC(NC(=S)N/N=C/c1ccco1)C(=O)OC` (centres undefined), for which the TGI in the experiment with ACHN renal, in the experiment with COLO 205 colon, with LOX IMVI melanoma, with SNB-19 CNS, in the experiment on KM12 colon and in the experiment with A549 NSCLC was more than 100 µM in each case. For the same molecule, the TGI in the experiment with NCI-H460 lung and in the experiment with OVCAR-5 ovarian was more than 100 µM in each case.

For `COc1ccc(C2=NN(c3ccccc3)C[N+](c3ccc(OC)cc3)=N2)cc1`, the TGI is more than 100 µM with ACHN renal; 61.9 µM in the experiment with LOX IMVI melanoma; 92.1 µM in the experiment with SNB-19 CNS; 54.7 µM with KM12 colon; more than 100 µM in the experiment on A549 NSCLC; more than 100 µM with NCI-H460 lung. Also, the TGI in the experiment with OVCAR-5 ovarian was 70 µM.

Regarding `CC1=C2C(=CC(C)(C)C2O)C(=O)C(C)(O)C12CC2` (centres undefined), the TGI in the experiment with ACHN renal stood at 0.0373 µM; in the experiment with COLO 205 colon, 0.0621 µM; in the experiment on LOX IMVI melanoma, 0.025 µM; with SNB-19 CNS, 0.17 µM; in the experiment with KM12 colon, 0.109 µM; in the experiment with A549 NSCLC, 0.277 µM. Besides, the TGI in the experiment on NCI-H460 lung was determined as 0.0412 µM; with OVCAR-5 ovarian it was 0.0433 µM. Also, in the experiment on COLO 205 colon, the GI50 was 0.0191 µM.

Take `COc1ccc(C(C#N)Cc2cc(OC)c(OC)c(OC)c2)cc1` (centres undefined): the TGI in the experiment with ACHN renal is more than 100 µM; in the experiment on COLO 205 colon, 49.3 µM; with LOX IMVI melanoma, more than 100 µM; with SNB-19 CNS it was more than 100 µM; in the experiment with KM12 colon, more than 100 µM; with A549 NSCLC it was more than 100 µM. Moreover, the TGI in the experiment with NCI-H460 lung and in the experiment with OVCAR-5 ovarian was more than 100 µM throughout.

For `CN1c2ccccc2N(C)C23N(C)c4ccccc4N(C)C12N(C)c1ccccc1N3C` (centres undefined), the TGI in the experiment with ACHN renal, in the experiment on COLO 205 colon, in the experiment with LOX IMVI melanoma, in the experiment with SNB-19 CNS, in the experiment with KM12 colon and in the experiment with A549 NSCLC was more than 100 µM in each case. Further, the TGI in the experiment on NCI-H460 lung and in the experiment on OVCAR-5 ovarian was more than 100 µM throughout.
